In patent publication US8648066B2 (Exelixis, Inc., priority 2009, dated 2014):

Molecular target: mTOR/GbL/Raptor (mTORC1) (Homo sapiens, UniProt P42345)
Test: mTOR/GbL/Raptor (mTORC1) ELISA assay
Type: biochemical
Details: phosphorylation of 4E-BP1; 0.2 nM mTORC1, 10 μM ATP; read-out: IC50 in this assay (mTORC1 ELISA)
Method in brief: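 ELISA read-out: phospho-4E-BP1 captured on Ni-chelate plates and detected with anti-phospho antibody plus HRP-anti-IgG luminescence. The kinase step ran 120 min at ambient temperature with 0.2 nM human mTORC1, 10 µM ATP, 50 nM His-4E-BP1, 10 mM MnCl2, pH 7.2 HEPES.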

Compound	IC50 [nM]
CCNc1nc2ccc(-c3ccc4c(c3)CN(c3ccnc5ccccc35)CCO4)cc2[nH]1 [Example 208, N-ethyl-6-(4-quinolin-4-yl-2,3,4,5-tetrahydro-1,4-benzoxazepin-7-yl)-1H-benzimidazol-2-amine]	50 to 250
COC1Cc2nc(CN(C)C)nc(N3CCOc4ccc(-c5ccc6scnc6c5)cc4C3)c2CC1(C)C (centres unmarked) [Example 338, 1-{4-[7-(1,3-benzothiazol-5-yl)-2,3-dihydro-1,4-benzoxazepin-4(5H)-yl]-6,6-dimethyl-7-(methyloxy)-5,6,7,8-tetrahydroquinazolin-2-yl}-N,N-dimethylmethanamine]	≥ 2000
Cc1nc2ncc(-c3ccc4c(c3)CN(c3ncnc5c3CCC(C(C)O)C5)CCO4)cc2[nH]1 (centres unmarked) [Example 340, 1-{4-[7-(2-methyl-1H-imidazo[4,5-b]pyridin-6-yl)-2,3-dihydro-1,4-benzoxazepin-4(5H)-yl]-5,6,7,8-tetrahydroquinazolin-7-yl}ethanol]	50 to 250
Cc1nc2ccc(-c3ccc4c(c3)CN(c3ccnc5cc(F)ccc35)CCO4)cc2[nH]1 [Example 241, 4-(7-fluoroquinolin-4-yl)-7-(2-methyl-1H-benzimidazol-6-yl)-2,3,4,5-tetrahydro-1,4-benzoxazepine]	250 to 1000
Cc1nc2ccc(-c3ccc4c(c3)CN(c3ncnc(C)c3Cc3ccccc3)CCO4)cc2[nH]1 [Example 55, 7-(2-methyl-1H-benzimidazol-6-yl)-4-[6-methyl-5-(phenylmethyl)pyrimidin-4-yl]-2,3,4,5-tetrahydro-1,4-benzoxazepine]	≤ 10
Nc1nc2ncc(-c3ccc4c(c3)CN(c3ncnc5ccc(Br)cc35)CCO4)cc2[nH]1 [Example 181, 6-[4-(6-brromoquinazolin-4-yl)-2,3,4,5-tetrahydro-1,4-benzoxazepin-7-yl]-1H-imidazo[4,5-b]pyridin-2-amine]	≤ 10
Cc1nc2c(F)c(-c3ccc4c(c3)CN(c3nc(CN(C)C)nc5c3CC(C)(C)CC5)CCO4)ccc2[nH]1 [Example 341, 1-{4-[7-(4-fluoro-2-methyl-1H-benzimidazol-5-yl)-2,3-dihydro-1,4-benzoxazepin-4(5H)-yl]-6,6-dimethyl-5,6,7,8-tetrahydroquinazolin-2-yl}-N,N-dimethylmethanamine]	250 to 1000
Cc1ncnc(N2CCOc3ccc(-c4ccc(N)nn4)cc3C2)c1Cc1ccc(F)cc1 [Example 149, 6-(4-{5-[(4-fluorophenyl)methyl]-6-methylpyrimidin-4-yl}-2,3,4,5-tetrahydro-1,4-benzoxazepin-7-yl)pyridazin-3-amine]	50 to 250
CCNc1nc2ccc(-c3ccc4c(c3)CN(c3ncnc(C)c3Cc3ccc(F)cc3)CCO4)cc2[nH]1 [Example 192, N-ethyl-6-(4-{5-[(4-fluorophenyl)methyl]-6-methylpyrimidin-4-yl}-2,3,4,5-tetrahydro-1,4-benzoxazepin-7-yl)-1H-benzimidazol-2-amine]	≤ 10
CC[C@H](C)NCc1nc2c(c(N3CCOc4ccc(-c5cnc6nc(C)[nH]c6c5)cc4C3)n1)CC(C)(C)CC2 [Example 304, (2S)-N-({6,6-dimethyl-4-[7-(2-methyl-1H-imidazo[4,5-b]pyridin-6-yl)-2,3-dihydro-1,4-benzoxazepin-4(5H)-yl]-5,6,7,8-tetrahydroquinazolin-2-yl}methyl)butan-2-amine]	≤ 10
c1ccc2c(N3CCOc4ccc(-c5ccc6nc[nH]c6c5)cc4C3)ncnc2c1 [Example 123, 7-(1H-benzimidazol-6-yl)-4-quinazolin-4-yl-2,3,4,5-tetrahydro-1,4-benzoxazepine]	50 to 250
c1ccc2c(N3CCOc4ccc(-c5ccc6c(c5)CCO6)cc4C3)ccnc2c1 [Example 135, 7-(2,3-dihydro-1-benzofuran-5-yl)-4-quinolin-4-yl-2,3,4,5-tetrahydro-1,4-benzoxazepine]	1000 to 2000
CNC(=O)c1ccc(-c2ccc3c(c2)CN(c2ncnc(C)c2Cc2ccc(F)cc2)CCO3)nc1 [Example 155, 6-(4-{5-[(4-fluorophenyl)methyl]-6-methylpyrimidin-4-yl}-2,3,4,5-tetrahydro-1,4-benzoxazepin-7-yl)-N-methylpyridine-3-carboxamide]	250 to 1000
CCNc1nc2ccc(-c3ccc4c(c3)CN(c3ccncn3)CCO4)cc2[nH]1 [Example 277, N-ethyl-6-(4-pyrimidin-4-yl-2,3,4,5-tetrahydro-1,4-benzoxazepin-7-yl)-1H-benzimidazol-2-amine]	1000 to 2000

More lines, now with the values ahead:

IC50 [nM]	Compound
50 to 250	CN1CCC[C@H](CNS(=O)(=O)c2cc(-c3ccc4c(c3)CN(c3ncnc5c3CC(C)(C)CC5)CCO4)cnc2N)C1 [Example 393, 2-amino-5-[4-(6,6-dimethyl-5,6,7,8-tetrahydroquinazolin-4-yl)-2,3,4,5-tetrahydro-1,4-benzoxazepin-7-yl]-N-{[(3S)-1-methylpiperidin-3-yl]methyl}pyridine-3-sulfonamide]
≥ 2000	Cc1nc2cc(-c3ccc4c(c3)CN(c3nc(CN(C)C)nc(C)c3Cl)CCO4)ccc2[nH]1 [Example 677, 1-{5-chloro-4-methyl-6-[7-(2-methyl-1H-benzimidazol-5-yl)-2,3-dihydro-1,4-benzoxazepin-4(5H)-yl]pyrimidin-2-yl}-N,N-dimethylmethanamine]
50 to 250	CN(C)Cc1nc2c(c(N3CCOc4ccc(-c5cnc(Cl)c(NS(C)(=O)=O)c5)cc4C3)n1)CC(C)(C)CC2 [Example 616, N-[2-chloro-5-(4-{2-[(dimethylamino)methyl]-6,6-dimethyl-5,6,7,8-tetrahydroquinazolin-4-yl}-2,3,4,5-tetrahydro-1,4-benzoxazepin-7-yl)puyridin-3-yl]methanesulfonamide]
10 to 50	Cc1nc2cc(-c3ccc4c(c3)CN(c3nc(CNCCF)nc(C)c3C(C)C)CCO4)ccc2[nH]1 [Example 679, 2-fluoro-N-({4-methyl-6-[7-(2-methyl-1H-benzimidazol-5-yl)-2,3-dihydro-1,4-benzoxazepin-4(5H)-yl]-5-(1-methylethyl)pyrimidin-2-yl}methyl)ethanamine]
50 to 250	Cc1ncc(-c2ccc3c(c2)CN(c2ncnc4c2CC(C)(C)CC4)CCO3)cc1NS(C)(=O)=O [Example 633, N-{5-[4-(6,6-dimethyl-5,6,7,8-tetrahydroquinazolin-4-yl)-2,3,4,5-tetrahydro-1,4-benzoxazepin-7-yl]-2-methylpyridin-3-yl}methanesulfonamide]
10 to 50	CC(CO)NS(=O)(=O)c1cc(-c2ccc3c(c2)CN(c2ncnc4c2CC(C)(C)CC4)CCO3)cnc1N (centres unmarked) [Example 368, 2-amino-5-[4-(6,6-dimethyl-5,6,7,8-tetrahydroquinazolin-4-yl)-2,3,4,5-tetrahydro-1,4-benzoxazepin-7-yl]-N-(2-hydroxy-1-methylethyl)pyridine-3-sulfonamide]
50 to 250	CNc1ncc(-c2ccc3c(c2)CN(c2ncnc4c2CC(C)(C)CC4)CCO3)cc1NS(C)(=O)=O [Example 627, N-{5-[4-(6,6-dimethyl-5,6,7,8-tetrahydroquinazolin-4-yl)-2,3,4,5-tetrahydro-1,4-benzoxazepin-7-yl]-2-(methylamino)pyridin-3-yl}methanesulfonamide]
≤ 10	CC(C)(O)CNS(=O)(=O)c1cc(-c2ccc3c(c2)CN(c2ncnc4c2CC(C)(C)CC4)CCO3)cnc1N [Example 369, 2-amino-5-[4-(6,6-dimethyl-5,6,7,8-tetrahydroquinazolin-4-yl)-2,3,4,5-tetrahydro-1,4-benzoxazepin-7-yl]-N-(2-hydroxy-2-methylpropyl)pyridine-3-sulfonamide]
10 to 50	CC(O)CNS(=O)(=O)c1cc(-c2ccc3c(c2)CN(c2ncnc4c2CC(C)(C)CC4)CCO3)cnc1N (centres unmarked) [Example 372, 2-amino-5-[4-(6,6-dimethyl-5,6,7,8-tetrahydroquinazolin-4-yl)-2,3,4,5-tetrahydro-1,4-benzoxazepin-7-yl]-N-(2-hydroxypropyl)pyridine-2-sulfonamide]
250 to 1000	Cc1nc2cc(-c3ccc4c(c3)CN(c3nc(CN(C)C)nc(C)c3CC(C)C)CCO4)ccc2[nH]1 [Example 655, N,N-dimethyl-1-{4-methyl-6-[7-(2-methyl-1H-benzimidazol-5-yl)-2,3-dihydro-1,4-benzoxazepin-4(5H)-yl]-5-(2-methylpropyl)pyrimidin-2-yl}methanamine]
250 to 1000	COc1ccc(-c2ccc3c(c2)CN(c2nc(CN(C)C)nc4c2CC(C)(C)CC4)CCO3)cc1S(C)(=O)=O [Example 652, 1-(6,6-dimethyl-4-{7-[4-(methyloxy)-3-(methylsulfonyl)phenyl]-2,3-dihydro-1,4-benzoxazepin-4(5H)-yl}-5,6,7,8-tetrahydroquinazolin-2-yl)-N,N-dimethylmethanamine]
250 to 1000	Cc1c(NC2CCOCC2)ncnc1N1CCOc2ccc(-c3cnc4nc(C5CC5)[nH]c4c3)cc2C1 [Example 532, 6-[7-(2-cyclopropyl-1H-imidazo[4,5-b]pyridin-6-yl)-2,3-dihydro-1,4-benzoxazepin-4(5H)-yl]-5-methyl-N-(tetrahydro-2H-pyran-4-yl)pyrimidin-4-amine]
≤ 10	Cc1nc2cc(-c3ccc4c(c3)CN(c3ncnc5c3CC3(CC5)CC3)CCO4)cnc2[nH]1 [Example 502]
≤ 10	Cc1nc2ccc(-c3ccc4c(c3)CN(c3nc(CO)nc(C)c3C(C)C)CCO4)cc2[nH]1 [Example 687, {4-methyl-6-[7-(2-methyl-1H-benzimidazol-5-yl)-2,3-dihydro-1,4-benzoxazepin-4(5H)-yl]-5-(1-methylethyl)pyrimidin-2-yl}methanol]
10 to 50	Cc1nc2ncc(-c3ccc4c(c3)CN(c3ncnc(C)c3CC3CC3)CCO4)cc2[nH]1 [Example 493, 4-[5-(cyclopropylmethyl)-6-methylpyrimidin-4-yl]-7-(2-methyl-1H-imidazo[4,5-b]pyridin-6-yl)-2,3,4,5-tetrahydro-1,4-benzoxazepine]
